Read-outs that look alike come from different tables or passages of the source. Blank lines part the entries; values can stand above or below the compound they belong to.
Experiments:
[1] = Peak area of Compound X in plasma after intratracheal administration of Compound 54 (LC/MS); assay type: in vivo, Sprague-Dawley rats
Method: (§1) A 10 mg/mL solution of Compound 54 in saline was prepared and 0.2 mL of this solution was administered into the trachea of two Sprague-Dawley rats via intubation. Blood samples were taken at 10 minutes, 30 minutes, 60 minutes and 120 minutes, post-intubation. The plasma concentration of Compound 54 was measured at each of these time points using HPLC and the peak area of the amount of Compound X in the plasma was measured at each of these time points using LC/MS.
The peak area of Compound X correlates with the plasma concentration of this compound.

[2] = Plasma concentration of Compound 54 after intratracheal administration (HPLC); assay type: in vivo, Sprague-Dawley rats; settings: Sprague-Dawley, rat, other: intratracheal (into the trachea via intubation), 2 mg per rat, 0.2 mL of 10 mg/mL solution in saline
Method: as §1

Structure (SMILES): CNC(=O)[C@H]1O[C@@H](n2cnc3c(NC)nc(C#N)nc32)[C@H](O)[C@@H]1O [Compound X]
Mean Peak Area ([1]; 120 min after intratracheal administration of Compound 54, Rat 2 value not available): 0.4
Peak Area Rat 1 ([1]; Rat 1, 10 min after intratracheal administration of Compound 54): 140
Peak Area Rat 1 ([1]; Rat 1, 30 min after intratracheal administration of Compound 54): 9.6
Peak Area Rat 1 ([1]; Rat 1, 60 min after intratracheal administration of Compound 54): 4.4
Peak Area Rat 1 ([1]; Rat 1, 120 min after intratracheal administration of Compound 54): 0.4
Peak Area Rat 2 ([1]; Rat 2, 10 min after intratracheal administration of Compound 54): 64
Peak Area Rat 2 ([1]; Rat 2, 30 min after intratracheal administration of Compound 54): 12
Peak Area Rat 2 ([1]; Rat 2, 60 min after intratracheal administration of Compound 54): 1.8
Mean Peak Area ([1]; mean of rats, 10 min after intratracheal administration of Compound 54): 102
Mean Peak Area ([1]; mean of rats, 30 min after intratracheal administration of Compound 54): 10.8
Mean Peak Area ([1]; mean of rats, 60 min after intratracheal administration of Compound 54): 3.1

concentration at 10 min ([2]; Rat 1, 10 min post-intubation, read-out: Plasma Concentration Rat 1): 830 ng/mL
concentration at 30 min ([2]; Rat 1, 30 min post-intubation, read-out: Plasma Concentration Rat 1): 232 ng/mL
concentration at 60 min ([2]; Rat 1, 60 min post-intubation, read-out: Plasma Concentration Rat 1): 69.3 ng/mL
concentration at 120 min ([2]; Rat 1, 120 min post-intubation, read-out: Plasma Concentration Rat 1): 9.7 ng/mL
concentration at 10 min ([2]; mean of two rats, 10 min post-intubation, read-out: Mean Plasma Concentration): 728 ng/mL
concentration at 30 min ([2]; mean of two rats, 30 min post-intubation, read-out: Mean Plasma Concentration): 217 ng/mL
concentration at 60 min ([2]; mean of two rats, 60 min post-intubation, read-out: Mean Plasma Concentration): 47.6 ng/mL
concentration at 120 min ([2]; mean of two rats, 120 min post-intubation, read-out: Mean Plasma Concentration): 9.6 ng/mL
concentration at 10 min ([2]; second rat column (head printed Rat 1), 10 min post-intubation, read-out: Plasma Concentration Rat 1): 627 ng/mL
concentration at 30 min ([2]; second rat column (head printed Rat 1), 30 min post-intubation, read-out: Plasma Concentration Rat 1): 202 ng/mL
concentration at 60 min ([2]; second rat column (head printed Rat 1), 60 min post-intubation, read-out: Plasma Concentration Rat 1): 26 ng/mL
concentration at 120 min ([2]; second rat column (head printed Rat 1), 120 min post-intubation, read-out: Plasma Concentration Rat 1): 9.5 ng/mL
Structure (SMILES): CNC(=O)[C@H]1O[C@@H](n2cnc3c(NC)nc(C#N)nc32)[C@@H]2OP(=O)(O)O[C@@H]21 [Compound 54]

From patent publication US20070238694A1, “Purine compounds and methods of use thereof” (Inotek Pharmaceuticals Corporation, priority 2006, published 2007)
